Each compound was assayed against T1, hNK2 receptor (Homo sapiens, UniProt P21452) (assay: Radio-ligand ([125I]-NKA) receptor binding inhibitory activity using membrane fraction of hNK2 receptor-expressing CHO cell). Conditions: membrane fraction of hNK2 receptor-expressing CHO cells, 25° C., 30 min.
T1 construct: host or cells: CHO cells
T1 sequence (P21452 1-398): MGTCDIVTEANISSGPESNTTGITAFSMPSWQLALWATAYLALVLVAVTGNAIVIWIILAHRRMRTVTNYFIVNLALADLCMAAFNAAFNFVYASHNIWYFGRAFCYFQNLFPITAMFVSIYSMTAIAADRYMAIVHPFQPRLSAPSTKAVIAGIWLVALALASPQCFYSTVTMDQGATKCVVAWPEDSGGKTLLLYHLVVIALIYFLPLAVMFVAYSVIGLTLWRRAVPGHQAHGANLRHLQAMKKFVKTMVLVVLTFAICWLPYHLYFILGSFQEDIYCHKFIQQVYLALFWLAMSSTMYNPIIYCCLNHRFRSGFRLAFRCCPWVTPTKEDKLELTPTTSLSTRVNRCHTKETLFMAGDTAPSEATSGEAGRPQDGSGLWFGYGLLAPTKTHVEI
Method in brief: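 Inhibition of [125I]-NKA binding ([…] solution added) measured after 30 min at 25 °C using hNK2-CHO membrane fraction (20 μg/mL suspension) in pH 7.4 Tris buffer containing MnCl2, BSA and protease inhibitors. Filter-bound counts read; activity calculated as fraction of specific binding, non-specific defined with unlabeled NKA.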
In the case of `O=C(N[C@@H]1CCCC[C@@H]1C(=O)N1CC[C@@H]2[C@H](c3ccccc3)Nc3ccccc3[C@@H]21)c1cnccn1` [Example 127, N-((1R,2S)-2-{[(3aR,4R,9bR)-4-Phenyl-2,3,3a,4,5,9b-hexahydro-1H-pyrrolo[3,2-c]quinolin-1-yl]carbonyl}cyclohexyl)pyrazine-2-carboxamide], the IC50 is reported as under 10 nM.
`O=C(CCc1ccccc1)N[C@@H]1CCCC[C@@H]1C(=O)N1CC[C@@H]2[C@H](C3CC3)Nc3ccccc3[C@@H]21` [Example 181, N-((1R,2S)-2-{[(3aR,4S,9bR)-4-Cyclopropyl-2,3,3a,4,5,9b-hexahydro-1H-pyrrolo[3,2-c]quinolin-1-yl]carbonyl}cyclohexyl)-3-phenylpropanamide] gave an IC50 of under 1 nM.
`COC[C@@H]1Nc2ccccc2[C@H]2[C@@H]1CCN2C(=O)[C@H]1CCCC[C@H]1NC(=O)c1ccc2[nH]c(C)nc2c1` [Example 279, N-((1R,2S)-2-{[(3aR,4R,9bR)-4-(Methoxymethyl)-2,3,3a,4,5,9b-hexahydro-1H-pyrrolo[3,2-c]quinolin-1-yl]carbonyl}cyclohexyl)-2-methyl-1H-benzimidazole-5-carboxamide] was tested, and the IC50 was under 1 nM.
For `COC[C@@H]1Nc2ccccc2[C@H]2[C@@H]1CCN2C(=O)[C@H]1CCCC[C@H]1NC(=O)c1nc2ccccc2[nH]1` [Example 237, N-((1R,2S)-2-{[(3aR,4R,9bR)-4-(Methoxymethyl)-2,3,3a,4,5,9b-hexahydro-1H-pyrrolo[3,2-c]quinolin-1-yl]carbonyl}cyclohexyl)-1H-benzimidazole-2-carboxamide], the IC50 was under 1 nM.
With `CC(C)c1ccc(NC(=O)N[C@@H]2CCCC[C@@H]2C(=O)N2CC[C@@H]3[C@H](c4ccccc4)Nc4ccccc4[C@@H]32)cc1` [Example 150, N-(4-Isopropylphenyl)-N′-((1R,2S)-2-{[(3aR,4R,9bR)-4-phenyl-2,3,3a,4,5,9b-hexahydro-1H-pyrrolo[3,2-c]quinolin-1-yl]carbonyl}cyclohexyl)urea] the IC50 was under 10 nM.
`O=C(/C=C/c1cccs1)N[C@@H]1CCCC[C@@H]1C(=O)N1CC[C@@H]2[C@H](c3ncc[nH]3)Nc3ccccc3[C@@H]21` [Example 300, (2E)-N-((1R,2S)-2-{[(3aR,4R,9bR)-4-(1H-Imidazol-2-yl)-2,3,3a,4,5,9b-hexahydro-1H-pyrrolo[3,2-c]quinolin-1-yl]carbonyl}cyclohexyl)-3-thien-2-ylacrylamide] was tested, and the IC50 was under 1 nM.
With `O=C(Nc1ccc(C(F)(F)F)cc1)N[C@@H]1CCCC[C@@H]1C(=O)N1CC[C@@H]2[C@H](c3ccccc3)Nc3ccccc3[C@@H]21` [Example 140, N-((1R,2S)-2-{[(3aR,4R,9bR)-4-Phenyl-2,3,3a,4,5,9b-hexahydro-1H-pyrrolo[3,2-c]quinolin-1-yl]carbonyl}cyclohexyl)-N′-[4-(trifluoromethyl)phenyl]urea] the IC50 was under 10 nM.
For `CCCCNC(=O)N[C@@H]1CCCC[C@@H]1C(=O)N1CC[C@@H]2[C@H](CCC)Nc3ccccc3[C@@H]21` [Example 199, N-Butyl-N′-((1R,2S)-2-{[(3aR,4S,9bR)-4-propyl-2,3,3a,4,5,9b-hexahydro-1H-pyrrolo[3,2-c]quinolin-1-yl]carbonyl}cyclohexyl)urea], the IC50 was under 10 nM.
`COc1ccc(C(=O)N[C@@H]2CCCC[C@@H]2C(=O)N2CC[C@@H]3[C@H](c4ccccc4)Nc4ccccc4[C@@H]32)cc1OC` [Example 104, 3,4-Dimethoxy-N-((1R,2S)-2-{[(3aR,4R,9bR)-4-phenyl-2,3,3a,4,5,9b-hexahydro-1H-pyrrolo[3,2-c]quinolin-1-yl]carbonyl}cyclohexyl)benzamide] showed an IC50 of under 1 nM.
For `Cn1cccc1[C@@H]1Nc2ccccc2[C@H]2[C@@H]1CCN2C(=O)[C@H]1CCCC[C@H]1NC(=O)c1ccccc1` (relative stereo) [Example 23, N-((1R,2S)-2-{[(3aR*,4R*,9bR*)-4-(1-Methyl-1H-pyrrol-2-yl)-2,3,3a,4,5,9b-hexahydro-1H-pyrrolo[3,2-c]quinolin-1-yl]carbonyl}cyclohexyl)benzamide], the IC50 was under 10 nM.
`COC[C@@H]1Nc2ccccc2[C@H]2[C@@H]1CCN2C(=O)[C@H]1CCCC[C@H]1NC(=O)c1ccc(-n2cnc(C)c2)cc1` [Example 272, N-((1R,2S)-2-{[(3aR,4R,9bR)-4-(Methoxymethyl)-2,3,3a,4,5,9b-hexahydro-1H-pyrrolo[3,2-c]quinolin-1-yl]carbonyl}cyclohexyl)-4-(4-methyl-1H-imidazol-1-yl)benzamide] was tested, and the IC50 was under 1 nM.
Work on `COC[C@@H]1Nc2ccccc2[C@H]2[C@@H]1CCN2C(=O)[C@H]1CCCC[C@H]1NC(=O)c1ccc(-n2ccnc2)cc1` [Example 250, 4-(1H-Imidazol-1-yl)-N-((1R,2S)-2-{[(3aR,4R,9bR)-4-(methoxymethyl)-2,3,3a,4,5,9b-hexahydro-1H-pyrrolo[3,2-c]quinolin-1-yl]carbonyl}cyclohexyl)benzamide] yielded an IC50 of under 1 nM.
Compound `O=C(N[C@@H]1CCCC[C@@H]1C(=O)N1CC[C@@H]2[C@H](c3ccccc3)Nc3ccccc3[C@@H]21)c1ccc(C(F)(F)F)cc1` [Example 87, N-((1R,2S)-2-{[(3aR,4R,9bR)-4-Phenyl-2,3,3a,4,5,9b-hexahydro-1H-pyrrolo[3,2-c]quinolin-1-yl]carbonyl}cyclohexyl)-4-(trifluoromethyl)benzamide] has an IC50 of under 10 nM.
For `CCC[C@@H]1Nc2ccccc2[C@H]2[C@@H]1CCN2C(=O)[C@H]1CCCC[C@H]1NC(=O)NCC` [Example 198, N-Ethyl-N′-((1R,2S)-2-{[(3aR,4S,9bR)-4-propyl-2,3,3a,4,5,9b-hexahydro-1H-pyrrolo[3,2-c]quinolin-1-yl]carbonyl}cyclohexyl)urea], the IC50 was under 10 nM.
`COC[C@@H]1Nc2ccccc2[C@H]2[C@@H]1CCN2C(=O)[C@H]1CCCC[C@H]1NC(=O)c1ccc2[nH]cnc2c1` [Example 259, N-((1R,2S)-2-{[(3aR,4R,9bR)-4-(Methoxymethyl)-2,3,3a,4,5,9b-hexahydro-1H-pyrrolo[3,2-c]quinolin-1-yl]carbonyl}cyclohexyl)-1H-benzimidazole-5-carboxamide] showed an IC50 of under 10 nM.
For `COC[C@@H]1Nc2ccccc2[C@H]2[C@@H]1CCN2C(=O)[C@H]1CCCC[C@H]1NC(=O)c1ccc(-n2ccnc2C)nc1` [Example 287, N-((1R,2S)-2-{[(3aR,4R,9bR)-4-(Methoxymethyl)-2,3,3a,4,5,9b-hexahydro-1H-pyrrolo[3,2-c]quinolin-1-yl]carbonyl}cyclohexyl)-6-(2-methyl-1H-imidazol-1-yl)nicotinamide], the IC50 was under 10 nM.
With `NC(=O)c1ccc(NC(=O)N[C@@H]2CCCC[C@@H]2C(=O)N2CC[C@@H]3[C@H](c4ccccc4)Nc4ccccc4[C@@H]32)cc1` [Example 160, 4-({[((1R,25)-2-{[(3aR,4R,9bR)-4-Phenyl-2,3,3a,4,5,9b-hexahydro-1H-pyrrolo[3,2-c]quinolin-1-yl]carbonyl}cyclohexyl)amino]carbonyl}amino)benzamide] the IC50 was under 1 nM.
For `COC[C@@H]1Nc2ccccc2[C@H]2[C@@H]1CCN2C(=O)[C@H]1CCCC[C@H]1NC(=O)c1ccc(N2CCOCC2)cc1` [Example 268, N-((1R,2S)-2-{[(3aR,4R,9bR)-4-(Methoxymethyl)-2,3,3a,4,5,9b-hexahydro-1H-pyrrolo[3,2-c]quinolin-1-yl]carbonyl}cyclohexyl)-4-morpholin-4-benzamide], the IC50 was under 10 nM.
For `CCCCNC(=O)N[C@@H]1CCCC[C@@H]1C(=O)N1CC[C@@H]2[C@H](c3ccccc3)Nc3ccccc3[C@@H]21` [Example 153, N-Butyl-N′-((1R,2S)-2-{[(3aR,4R,9bR)-4-phenyl-2,3,3a,4,5,9b-hexahydro-1H-pyrrolo[3,2-c]quinolin-1-yl]carbonyl}cyclohexyl)urea], the IC50 was under 1 nM.
In the case of `COC[C@@H]1Nc2ccccc2[C@H]2[C@@H]1CCN2C(=O)[C@H]1CCCC[C@H]1NC(=O)c1ccc2c(c1)CCO2` [Example 248, N-((1R,2S)-2-{[(3aR,4R,9bR)-4-(Methoxymethyl)-2,3,3a,4,5,9b-hexahydro-1H-pyrrolo[3,2-c]quinolin-1-yl]carbonyl}cyclohexyl)-2,3-dihydro-1-benzofuran-5-carboxamide], the IC50 is reported as under 1 nM.
Work on `Cn1ccnc1[C@@H]1Nc2ccccc2[C@H]2[C@@H]1CCN2C(=O)[C@H]1CCCC[C@H]1NC(=O)c1ccccc1` [Example 82, N-((1R,2S)-2-{[(3aR,4R,9bR)-4-(1-Methyl-1H-imidazol-2-yl)-2,3,3a,4,5,9b-hexahydro-1H-pyrrolo[3,2-c]quinolin-1-yl]carbonyl}cyclohexyl)benzamide] yielded an IC50 of under 10 nM.
For `COC[C@@H]1Nc2ccccc2[C@H]2[C@@H]1CCN2C(=O)[C@H]1CCCC[C@H]1NC(=O)c1ccc(-n2cccc2)cc1` [Example 258, N-((1R,2S)-2-{[(3aR,4R,9bR)-4-(Methoxymethyl)-2,3,3a,4,5,9b-hexahydro-1H-pyrrolo[3,2-c]quinolin-1-yl]carbonyl}cyclohexyl)-4-(1H-pyrrol-1-yl)benzamide], the IC50 was under 1 nM.
Work on `O=C(N[C@@H]1CCCC[C@@H]1C(=O)N1CC[C@@H]2[C@H](C3CC3)Nc3ccccc3[C@@H]21)c1ccc(F)cc1` [Example 182, N-((1R,2S)-2-{[(3aR,4S,9bR)-4-Cyclopropyl-2,3,3a,4,5,9b-hexahydro-1H-pyrrolo[3,2-c]quinolin-1-yl]carbonyl}cyclohexyl)-4-fluorobenzamide] yielded an IC50 of under 1 nM.
In the case of `COC[C@@H]1Nc2ccccc2[C@H]2[C@@H]1CCN2C(=O)[C@H]1CCCC[C@H]1NC(=O)c1c[nH]c2ccccc12` [Example 244, N-((1R,2S)-2-{[(3aR,4R,9bR)-4-(Methoxymethyl)-2,3,3a,4,5,9b-hexahydro-1H-pyrrolo[3,2-c]quinolin-1-yl]carbonyl}cyclohexyl)-1H-indole-3-carboxamide], the IC50 is reported as under 10 nM.

From patent publication US7943770B2, “Fused quinoline derivative and use thereof” (Takeda Pharmaceutical Company Limited, priority 2004, dated 2011)
